In US20190256498A1, “CRYSTALLINE FORMS OF DACLATASVIR DIHYDROCHLORIDE” (LUPIN LIMITED, priority 2016, published 2019):
Counter-ions that a name gives are not always drawn. Each block holds one compound with its values, some of them ahead of it.

Legend:
[1] = Polymorphic stability of crystalline forms over a period of time; assay type: physicochemical
[2] = Storage stability of crystalline form L2 (temperature/RH conditions, HPLC purity); assay type: physicochemical
[3] = neat crystalline dihydrochloride salts N1 and N2, screening studies; cited from earlier work

Structure (SMILES): COC(=O)N[C@H](C(=O)N1CCC[C@H]1c1nc(-c2ccc(-c3ccc(-c4c[nH]c([C@@H]5CCCN5C(=O)[C@@H](NC(=O)OC)C(C)C)n4)cc3)cc2)c[nH]1)C(C)C [form L1, N,N′-[[1,1′-biphenyl]-4,4′-diylbis[1H-imidazole-5,2-diyl-(2S)-2,1-pyrrolidinediyl[(1S)-1-(1-methylethyl)-2-oxo-2,1-ethanediyl]]]bis-carbamic acid, C,C′-dimethyl ester, hydrochloride (1:2)]
polymorphic stability (conversion to any other polymorphic form) [1]: stable and do not get converted to any other polymorphic form

stability ([2]; 5±3° C.): stable | stability ([2]; 25±2° C./60±5% RH): stable | stability ([2]; 40±2° C./75±5% RH): stable
Structure (SMILES): COC(=O)N[C@H](C(=O)N1CCC[C@H]1c1nc(-c2ccc(-c3ccc(-c4c[nH]c([C@@H]5CCCN5C(=O)[C@@H](NC(=O)OC)C(C)C)n4)cc3)cc2)c[nH]1)C(C)C [form L2, N,N′-[[1,1′-biphenyl]-4,4′-diylbis[1H-imidazole-5,2-diyl-(2S)-2,1-pyrrolidinediyl[(1S)-1-(1-methylethyl)-2-oxo-2,1-ethanediyl]]]bis-carbamic acid, C,C′-dimethyl ester, hydrochloride (1:2)]

Structure (SMILES): COC(=O)N[C@H](C(=O)N1CCC[C@H]1c1nc(-c2ccc(-c3ccc(-c4c[nH]c([C@@H]5CCCN5C(=O)[C@@H](NC(=O)OC)C(C)C)n4)cc3)cc2)c[nH]1)C(C)C [form N-2, N,N′-[[1,1′-biphenyl]-4,4′-diylbis[1H-imidazole-5,2-diyl-(2S)-2,1-pyrrolidinediyl[(1S)-1-(1-methylethyl)-2-oxo-2,1-ethanediyl]]]bis-carbamic acid, C,C′-dimethyl ester, hydrochloride (1:2)]
thermodynamic stability among polymorphs [3]: thermodynamically most stable polymorph
